Reference: patent US6384058B1, “2,4,6-trisubstituted pryridines with estrogenic activity and methods for the solid phase synthesis thereof” (American Home Products Corporation, priority 1997, dated 2002)

How the values were obtained:
human estrogen receptor = target: T1, human estrogen receptor (Homo sapiens, UniProt P03372); test: Estrogen Receptor Assay: 2×VIT ERE Transfection Assay (luciferase reporter in CHO cells); assay type: cell-based; conditions: 1 μM compound alone, 24 h, CHO cells stably transfected with human estrogen receptor, luciferase normalised to B-galactosidase, n=8
T1 construct: expressed in transfected cells; host or cells: Chinese Hamster Ovary (CHO) cells, stably transfected
T1 sequence (P03372 1-595): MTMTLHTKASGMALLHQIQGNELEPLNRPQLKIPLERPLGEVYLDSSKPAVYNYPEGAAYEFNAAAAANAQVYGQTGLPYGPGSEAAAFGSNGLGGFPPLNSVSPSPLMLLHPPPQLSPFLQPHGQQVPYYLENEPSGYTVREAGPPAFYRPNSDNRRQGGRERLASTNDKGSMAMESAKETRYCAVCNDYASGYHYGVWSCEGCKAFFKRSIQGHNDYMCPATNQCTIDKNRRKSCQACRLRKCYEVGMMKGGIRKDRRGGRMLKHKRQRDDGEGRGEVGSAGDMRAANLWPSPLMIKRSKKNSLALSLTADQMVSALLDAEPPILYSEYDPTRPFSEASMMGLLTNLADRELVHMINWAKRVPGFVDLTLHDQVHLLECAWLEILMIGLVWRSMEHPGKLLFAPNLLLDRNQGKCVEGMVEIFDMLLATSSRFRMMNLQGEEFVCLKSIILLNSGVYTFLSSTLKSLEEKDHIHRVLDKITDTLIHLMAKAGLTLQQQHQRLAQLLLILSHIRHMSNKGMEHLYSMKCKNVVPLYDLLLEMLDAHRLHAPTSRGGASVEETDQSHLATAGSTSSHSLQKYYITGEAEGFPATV
Description: Enhancement of luciferase gene expression in this model is dependent upon estrogen receptor (ER) interaction with a vitellogenin gene estrogen responsive element (ERE) capable of enhancing basal promoter activity. This is a sensitive and rapid methodology to assess estrogenic/antiestrogenic potency of compounds.
48 h prior to treatment the growth medium is replaced with DMEM lacking phenol red+10% dextran coated charcoal stripped FBS (treatment medium). Cells are plated at a density of 5000 cells/well in 96-well plates containing 200 μL of medium/well.
Calcium Phosphate Transfection: Reporter DNA (Promega plasmid pGL2 containing two tandem copies of the vitellogenin ERE in front of the minimal thymidine kinase promoter driving the luciferase gene) is combined with the B-galactosidase expression plasmid pCH110 (Pharmacia) and carrier DNA (pTZ18U) in the following ratio: 10 μg of reporter DNA, 5 μg of pCH110 DNA, 5 μg of pTZ18U, and 20 μg of DNA/1 mL of transfection solution. […] 20 μL of this mixture is added to each well of cells and remains on the cells for 16 h. […] Each treatment condition is performed on 8 wells (n=8) which are incubated for 24 h prior to luciferase assay.
Luciferase Assay: After 24 h exposure to compounds, the media is removed and each well is washed 2× with 125 μL of PBS lacking Mg++ and Ca++. After removing the PBS, 25 μL of Promega lysis buffer is added to each well and allowed to stand at room temperature for 15 min, followed by 15 min at −80 deg. C. and 15 min at 37 deg. C. 20 μL of lysate is tranferred to an opaque 96-well plate for luciferase activity evaluation and the remaining lysate (5 μL) is used for B-galactosidase activity evaluation (normalize transfection). The luciferan substrate (Promega) added is 100 μL aliquots to each well automatically by the luminometer and the light produced (relative light units) is read 10 seconds after addition. The data is logged and automatically sent to a JMP statistical program for analysis. A hard copy printout is also produced at the time of the assay.
B-galactosidase Assay: To the remaining 5 μL of lysate 45 μL of PBS is added. 50 μl of Promega B-galactosidase 2×assay buffer is added, mixed well and incubated at 37 deg. C. for 1 h. A plate containing a standard curve (0.1 to 1.5 milliunits in triplicate) is set up for each experimental run. The plates are analyzed on a Molecular Devices spectrophotometric plate reader at 410 nm. The optical densities for the unknowns are converted to milliunits of activity by mathematical extrapolation from the standard curve. Analysis of Results: The luciferase data is generated as relative light units (RLUs) accumulated during a 10 second measurement and is automatically transferred to a JMP (SAS Inc) file where background RLUs are subtracted. The B-galactosidase values are automatically imported into the file and these values are divided into the RLUs to normalize the data. The mean and standard deviation is determined from a n=8 for each treatment.

| melting point | Estrogenic activity at 1 μM (% of activity of 1 nM 17B-estradiol) (human estrogen receptor) | Compound |
| --- | --- | --- |
| 146 to 148 °C | 14% | Oc1ccccc1-c1cc(-c2ccc(F)c(F)c2)cc(-c2ccc(Cl)cc2)n1 [Example 1, 2-[6-(4-Chloro-phenyl)-4-(3,4-difluoro-phenyl)-pyridin-2-yl]-phenol] |
| 165 to 167 °C |  | Oc1ccccc1-c1cc(-c2ccc(F)c(F)c2)cc(-c2ccc3ccccc3c2)n1 [Example 2, 2-[4-(3,4-Difluoro-phenyl)-6-naphthalen-2-yl-pyridin-2-yl]-phenol] |
| 147 to 148 °C | 10% | Oc1ccccc1-c1cc(-c2ccc(F)c(F)c2)cc(-c2ccco2)n1 [Example 3, 2-[4-(3,4-Difluoro-phenyl)-6-furan-2-yl-pyridin-2-yl]-phenol] |
| 195 to 196 °C | 22% | Oc1ccccc1-c1cc(-c2ccc3c(c2)OCO3)cc(-c2ccc3ccccc3c2)n1 [Example 4, 2-(4-Benzo[1,3]dioxol-5-yl-6-naphthalen-2-yl-pyridin-2-yl)-phenol] |
| 120 to 121 °C |  | Oc1ccccc1-c1cc(-c2ccc3c(c2)OCO3)cc(-c2ccsc2)n1 [Example 5, 2-(4-Benzo[1,3]dioxol-5-yl-6-thiophen-3-yl-pyridin-2-yl)-phenol] |
| 187 to 188 °C |  | Oc1ccc(F)cc1-c1cc(-c2ccc(-c3ccccc3)cc2)cc(-c2ccc3ccccc3c2)n1 [Example 6, 2-(4-Biphenyl-4-yl-6-naphthalen-2-yl-pyridin-2-yl)-4-fluoro-phenol] |
|  | 6% | Oc1ccc(F)cc1-c1cc(-c2ccc(-c3ccccc3)cc2)cc(-c2ccncc2)n1 [Example 7, 2-(4-Biphenyl-4-yl-[2,4′]bipyridinyl-6-yl)-4-fluoro-phenol] |
| 174 to 175 °C |  | Oc1cccc(-c2cc(-c3ccc(-c4ccccc4)cc3)cc(-c3ccc4ccccc4c3)n2)c1 [Example 9, 3-(4-Biphenyl-4-yl-6-naphthalen-2-yl-pyridin-2-yl)-phenol] |
|  | 36% | Oc1cccc(-c2cc(C3CCCCC3)cc(-c3ccco3)n2)c1 [Example 10, 3-(4-Cyclohexyl-6-furan-2-yl-pyridin-2-yl)-phenol] |
